Reference: the supplement of paper PMC10307832

Tests used:
Assay in all cases: relative viability (nuclei count vs DMSO), 5 days (fraction); higher = more cells survive
[1] = compound: C1CSC2=C(C(=O)N1)SC3=C2C=C(C=C3)O [kb NB 142-70] + Nc1nc2[nH]cc(CCc3ccc(C(=O)N[C@@H](CCC(=O)O)C(=O)O)cc3)c2c(=O)[nH]1 [Pemetrexed] (partner 0.2 µM)
Procedure, shortened: (§1)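 Medians of duplicate plates are given as relative viability. That measure is the nuclei count in treated wells divided by the count in vehicle wells. Counts were taken on 4× images of lung cancer cell lines in 1536-well plates, 5 days after pin-tool dosing the day after seeding with one drug alone or a fixed anchor-drug dose plus five library-drug doses (not always all listed) in √10 steps.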

kb NB 142-70 + Olaparib = compound: C1CSC2=C(C(=O)N1)SC3=C2C=C(C=C3)O [kb NB 142-70] + O=C(c1cc(Cc2n[nH]c(=O)c3ccccc23)ccc1F)N1CCN(C(=O)C2CC2)CC1 [Olaparib] (partner 8 µM)
Procedure, shortened: as §1

[2] = compound: NCC(=O)Nc1ccc(-n2nc(C(F)(F)F)cc2-c2ccc3c(ccc4ccccc43)c2)cc1 + CC(C)C[C@H](NC(=O)[C@H](Cc1ccccc1)NC(=O)c1cnccn1)B(O)O [Bortezomib] (partner 0.002 µM)
Procedure, shortened: as §1

kb NB 142-70 + Alpelisib = compound: C1CSC2=C(C(=O)N1)SC3=C2C=C(C=C3)O [kb NB 142-70] + Cc1nc(NC(=O)N2CCC[C@H]2C(N)=O)sc1-c1ccnc(C(C)(C)C(F)(F)F)c1 [Alpelisib] (partner 2 µM)
Procedure, shortened: as §1

[3] = compound: NCC(=O)Nc1ccc(-n2nc(C(F)(F)F)cc2-c2ccc3c(ccc4ccccc43)c2)cc1 + C[C@]1(O)C[C@@H](c2nc(-c3ccc4ccc(-c5ccccc5)nc4c3)c3c(N)nccn32)C1 [Linsitinib] (partner 1 µM)
Procedure, shortened: as §1

Work on NCI-H1650 yielded a relative viability ([1]; first compound 0.1 µM) of 0.315, a relative viability ([1]; first compound 1 µM) of 0.419 and a relative viability ([1]; first compound 3.162 µM) of 0.481. It also gave a relative viability (kb NB 142-70 + Olaparib; first compound 0.1 µM) of 0.9, a relative viability (kb NB 142-70 + Olaparib; first compound 1 µM) of 0.881 and a relative viability (kb NB 142-70 + Olaparib; first compound 3.162 µM) of 0.854. For the same cell line, the relative viability ([2]; first compound 0.02 µM) was 0.235, the relative viability ([2]; first compound 0.06325 µM) was 0.215 and the relative viability ([2]; first compound 0.2 µM) was 0.188. For the same cell line, the relative viability ([2]; first compound 0.6325 µM) was 0.191 and the relative viability ([2]; first compound 2 µM) was 0.195.

For NCI-H1395, the relative viability (kb NB 142-70 + Alpelisib; first compound 0.1 µM) was 1.29, the relative viability (kb NB 142-70 + Alpelisib; first compound 1 µM) was 1.15 and the relative viability (kb NB 142-70 + Alpelisib; first compound 3.162 µM) was 0.66. For the same cell line, the relative viability ([1]; first compound 0.1 µM) was 0.915, the relative viability ([1]; first compound 1 µM) was 0.872 and the relative viability ([1]; first compound 3.162 µM) was 0.833. For the same cell line, the relative viability (kb NB 142-70 + Olaparib; first compound 0.1 µM) was 0.45, the relative viability (kb NB 142-70 + Olaparib; first compound 1 µM) was 0.492 and the relative viability (kb NB 142-70 + Olaparib; first compound 3.162 µM) was 0.43. It also gave a relative viability ([3]; first compound 0.02 µM) of 0.997, a relative viability ([3]; first compound 0.06325 µM) of 0.986 and a relative viability ([3]; first compound 0.2 µM) of 1.15. The relative viability ([3]; first compound 0.6325 µM) was 1.06 and the relative viability ([3]; first compound 2 µM) was 1.18.

NCI-H1563 gave a relative viability (kb NB 142-70 + Alpelisib; first compound 0.1 µM) of 0.963, a relative viability (kb NB 142-70 + Alpelisib; first compound 1 µM) of 0.967 and a relative viability (kb NB 142-70 + Alpelisib; first compound 3.162 µM) of 0.932. The relative viability ([1]; first compound 0.1 µM) was 0.864, the relative viability ([1]; first compound 1 µM) was 0.961 and the relative viability ([1]; first compound 3.162 µM) was 0.774. For the same cell line, the relative viability ([2]; first compound 0.02 µM) was 0.77, the relative viability ([2]; first compound 0.06325 µM) was 0.962 and the relative viability ([2]; first compound 0.2 µM) was 0.69. It also gave a relative viability ([2]; first compound 0.6325 µM) of 0.925, a relative viability ([2]; first compound 2 µM) of 0.928 and a relative viability ([3]; first compound 0.02 µM) of 1.33. For the same cell line, the relative viability ([3]; first compound 0.06325 µM) was 1.22, the relative viability ([3]; first compound 0.2 µM) was 1.2 and the relative viability ([3]; first compound 0.6325 µM) was 1.19. The relative viability ([3]; first compound 2 µM) was 1.28.

LK-2 was tested, and the relative viability (kb NB 142-70 + Alpelisib; first compound 0.1 µM) was 1.1, the relative viability (kb NB 142-70 + Alpelisib; first compound 1 µM) was 0.72 and the relative viability (kb NB 142-70 + Alpelisib; first compound 3.162 µM) was 0.438. The relative viability ([1]; first compound 0.1 µM) was 0.327, the relative viability ([1]; first compound 1 µM) was 0.215 and the relative viability ([1]; first compound 3.162 µM) was 0.224. It also gave a relative viability (kb NB 142-70 + Olaparib; first compound 0.1 µM) of 0.822, a relative viability (kb NB 142-70 + Olaparib; first compound 1 µM) of 0.551 and a relative viability (kb NB 142-70 + Olaparib; first compound 3.162 µM) of 0.323. For the same cell line, the relative viability ([3]; first compound 0.02 µM) was 0.686, the relative viability ([3]; first compound 0.06325 µM) was 0.437 and the relative viability ([3]; first compound 0.2 µM) was 0.483. It also gave a relative viability ([3]; first compound 0.6325 µM) of 0.555 and a relative viability ([3]; first compound 2 µM) of 0.522.

In the case of ABC-1, the relative viability (kb NB 142-70 + Alpelisib; first compound 0.1 µM) is reported as 1.16, the relative viability (kb NB 142-70 + Alpelisib; first compound 1 µM) is reported as 0.932 and the relative viability (kb NB 142-70 + Alpelisib; first compound 3.162 µM) is reported as 0.796. The relative viability (kb NB 142-70 + Olaparib; first compound 0.1 µM) was 0.712, the relative viability (kb NB 142-70 + Olaparib; first compound 1 µM) was 0.746 and the relative viability (kb NB 142-70 + Olaparib; first compound 3.162 µM) was 0.427. It also gave a relative viability ([2]; first compound 0.02 µM) of 0.306, a relative viability ([2]; first compound 0.06325 µM) of 0.321 and a relative viability ([2]; first compound 0.6325 µM) of 0.226. It also gave a relative viability ([2]; first compound 2 µM) of 0.267, a relative viability ([3]; first compound 0.02 µM) of 0.731 and a relative viability ([3]; first compound 0.06325 µM) of 0.917. It also gave a relative viability ([3]; first compound 0.6325 µM) of 0.915 and a relative viability ([3]; first compound 2 µM) of 0.855.

NCI-H522 was tested, and the relative viability ([1]; first compound 0.1 µM) was 1.03, the relative viability ([1]; first compound 1 µM) was 0.871 and the relative viability ([1]; first compound 3.162 µM) was 0.745. For the same cell line, the relative viability (kb NB 142-70 + Olaparib; first compound 0.1 µM) was 0.69, the relative viability (kb NB 142-70 + Olaparib; first compound 1 µM) was 0.587 and the relative viability (kb NB 142-70 + Olaparib; first compound 3.162 µM) was 0.509.

Cell Line SW 900 has a relative viability ([1]; first compound 0.1 µM) of 0.451, a relative viability ([1]; first compound 1 µM) of 0.523 and a relative viability ([1]; first compound 3.162 µM) of 0.468. For the same cell line, the relative viability (kb NB 142-70 + Olaparib; first compound 0.1 µM) was 0.906, the relative viability (kb NB 142-70 + Olaparib; first compound 1 µM) was 1.14 and the relative viability (kb NB 142-70 + Olaparib; first compound 3.162 µM) was 0.789.

In the case of A549, the relative viability (kb NB 142-70 + Alpelisib; first compound 0.1 µM) is reported as 0.714, the relative viability (kb NB 142-70 + Alpelisib; first compound 1 µM) is reported as 0.654 and the relative viability (kb NB 142-70 + Alpelisib; first compound 3.162 µM) is reported as 0.14. For the same cell line, the relative viability (kb NB 142-70 + Olaparib; first compound 0.1 µM) was 0.305, the relative viability (kb NB 142-70 + Olaparib; first compound 1 µM) was 0.363 and the relative viability (kb NB 142-70 + Olaparib; first compound 3.162 µM) was 0.155. For the same cell line, the relative viability ([3]; first compound 0.02 µM) was 0.626, the relative viability ([3]; first compound 0.06325 µM) was 0.599 and the relative viability ([3]; first compound 0.2 µM) was 0.608. For the same cell line, the relative viability ([3]; first compound 0.6325 µM) was 0.579 and the relative viability ([3]; first compound 2 µM) was 0.614.

NCI-H1703 gave a relative viability (kb NB 142-70 + Alpelisib; first compound 0.1 µM) of 0.391, a relative viability (kb NB 142-70 + Alpelisib; first compound 1 µM) of 0.362 and a relative viability (kb NB 142-70 + Alpelisib; first compound 3.162 µM) of 0.444. The relative viability (kb NB 142-70 + Olaparib; first compound 0.1 µM) was 0.47, the relative viability (kb NB 142-70 + Olaparib; first compound 1 µM) was 0.387 and the relative viability (kb NB 142-70 + Olaparib; first compound 3.162 µM) was 0.455. The relative viability ([2]; first compound 0.02 µM) was 0.278, the relative viability ([2]; first compound 0.06325 µM) was 0.237 and the relative viability ([2]; first compound 0.2 µM) was 0.307. It also gave a relative viability ([2]; first compound 0.6325 µM) of 0.215, a relative viability ([2]; first compound 2 µM) of 0.344 and a relative viability ([3]; first compound 0.02 µM) of 0.718. For the same cell line, the relative viability ([3]; first compound 0.06325 µM) was 0.781, the relative viability ([3]; first compound 0.2 µM) was 0.52 and the relative viability ([3]; first compound 0.6325 µM) was 0.691. It also gave a relative viability ([3]; first compound 2 µM) of 0.591.

ChaGo-K-1 gave a relative viability ([1]; first compound 0.1 µM) of 0.261, a relative viability ([1]; first compound 1 µM) of 0.26 and a relative viability ([1]; first compound 3.162 µM) of 0.257. It also gave a relative viability (kb NB 142-70 + Olaparib; first compound 0.1 µM) of 0.489, a relative viability (kb NB 142-70 + Olaparib; first compound 1 µM) of 0.361 and a relative viability (kb NB 142-70 + Olaparib; first compound 3.162 µM) of 0.362. The relative viability ([2]; first compound 0.02 µM) was 0.979, the relative viability ([2]; first compound 0.06325 µM) was 1.02 and the relative viability ([2]; first compound 0.2 µM) was 0.81. For the same cell line, the relative viability ([2]; first compound 0.6325 µM) was 1.04 and the relative viability ([2]; first compound 2 µM) was 1.12.

In the case of Calu-6, the relative viability (kb NB 142-70 + Alpelisib; first compound 0.1 µM) is reported as 0.984, the relative viability (kb NB 142-70 + Alpelisib; first compound 1 µM) is reported as 0.867 and the relative viability (kb NB 142-70 + Alpelisib; first compound 3.162 µM) is reported as 0.478. The relative viability (kb NB 142-70 + Olaparib; first compound 0.1 µM) was 0.589, the relative viability (kb NB 142-70 + Olaparib; first compound 1 µM) was 0.457 and the relative viability (kb NB 142-70 + Olaparib; first compound 3.162 µM) was 0.287. The relative viability ([2]; first compound 0.02 µM) was 0.998, the relative viability ([2]; first compound 0.06325 µM) was 1.2 and the relative viability ([2]; first compound 0.2 µM) was 1.06. It also gave a relative viability ([2]; first compound 0.6325 µM) of 0.972, a relative viability ([2]; first compound 2 µM) of 1.04 and a relative viability ([3]; first compound 0.02 µM) of 0.914. It also gave a relative viability ([3]; first compound 0.06325 µM) of 0.939, a relative viability ([3]; first compound 0.2 µM) of 1.06 and a relative viability ([3]; first compound 0.6325 µM) of 0.911. The relative viability ([3]; first compound 2 µM) was 0.983.
